For 14 compounds, EC50 results are on record in US11618749B2, “Compounds and compositions for treating conditions associated with STING activity” (IFM Due, Inc., priority 2018, dated 2023).

pEC50: −log10 of the molar value.

In this experiment the target is T1, hSTING (Homo sapiens, UniProt Q86WV6, G230A/H232R/R293Q/R71H).
T1 construct: host or cells: THP1-Dual KO-IFNAR2 cells
T1 sequence (Q86WV6 whole entry R71H/G230A/H232R/R293Q): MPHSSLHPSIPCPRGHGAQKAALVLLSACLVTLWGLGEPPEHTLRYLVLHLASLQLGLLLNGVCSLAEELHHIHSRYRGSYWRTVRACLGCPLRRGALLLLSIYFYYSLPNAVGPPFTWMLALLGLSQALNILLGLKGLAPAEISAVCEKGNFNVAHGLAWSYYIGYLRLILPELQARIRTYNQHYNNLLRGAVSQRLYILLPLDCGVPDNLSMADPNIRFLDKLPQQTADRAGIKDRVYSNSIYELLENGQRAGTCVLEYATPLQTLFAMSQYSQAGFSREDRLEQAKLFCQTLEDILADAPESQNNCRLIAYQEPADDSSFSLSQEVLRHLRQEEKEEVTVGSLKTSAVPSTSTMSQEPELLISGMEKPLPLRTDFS
Briefly: STING reporter assay (luciferase reporter) in THP1-Dual KO-IFNAR2 cells activated with 2′3′cGAMP. The format is cell-based. As to conditions: 15 μM 2′3′cGAMP, 24 h, luciferase reporter activity. For orientation: Reporter assays use an easily measured gene product as a stand-in for the process of interest.
As to `COc1nccc2[nH]cc(NC(=O)Nc3ccc(C(F)(F)F)cc3)c12` [Compound 320, 1-(4-methoxy-1H-pyrrolo[3,2-c]pyridin-3-yl)-3-(4-(trifluoromethyl)phenyl)urea], the pEC50 was 4.00 to 5.30.
`O=C(Nc1c[nH]c2ccncc12)NC1CCC(c2ccccc2)CC1` (centres unmarked) [Compound 321]: the negative-log EC50 (pEC50) was 4.00 to 5.30.
As for `CCCCC1CCC(NC(=O)Nc2c[nH]c3cccnc23)CC1` (centres unmarked) [Compound 322], the figure is 5.30 to 6.00; as for `C#Cc1ccc2[nH]cc(NC(=O)Nc3ccc(C(F)(F)F)cc3)c2n1` [Compound 324, 1-(5-ethynyl-1H-pyrrolo[3,2-b]pyridin-3-yl)-3-(4-(trifluoromethyl)phenyl)urea], 4.00 to 5.30; as for `O=C(Nc1c[nH]c2cccnc12)NC1CCC(c2ccccc2)CC1` (centres unmarked) [Compound 325], 4.00 to 5.30.
Take `O=C(Nc1ccc(C2CCCCC2)cn1)Nc1c[nH]c2cccnc12` [Compound 326]: the pEC50 is 6.00 to 6.70.
Compound `O=C(Nc1ccc(C(F)(F)F)cc1)Nc1c[nH]c2ccc(-c3ccccc3)nc12` [Compound 328, 1-(5-phenyl-1H-pyrrolo[3,2-b]pyridin-3-yl)-3-(4-(trifluoromethyl)phenyl)urea] showed a negative-log EC50 (pEC50) of 4.00 to 5.30.
Regarding `Cc1ccc2[nH]cc(NC(=O)Nc3ccc(C(F)(F)F)cc3)c2n1` [Compound 329], the pEC50 is 6.00 to 6.70.
The same measure for `O=C(Nc1ccc(C(F)(F)F)cc1)Nc1c[nH]c2cc(F)cnc12` [Compound 330]: 5.30 to 6.00.
As for `O=C(Nc1ccc(C2CCCCC2)nc1)Nc1c[nH]c2cccnc12` [Compound 331], the figure is 5.30 to 6.00.
The compound `O=C(Nc1cccc(C(F)(F)F)c1)Nc1c[nH]c2cccnc12` [Compound 332] showed a negative-log EC50 (pEC50) of 5.30 to 6.00.
As for `O=C(Nc1c[nH]c2ccc(-c3ccccc3)nc12)NC1CCC(C(F)(F)F)CC1` (centres unmarked) [Compound 335], the negative logarithm of the EC50 (pEC50) is 5.30 to 6.00.
The same measure for `CCCCC1CCC(N/C(=N\C#N)Nc2c[nH]c3cccnc23)CC1` (centres unmarked) [Compound 336]: 6.00 to 6.70; for `O=S(=O)(Nc1ccc(C(F)(F)F)cc1)Nc1c[nH]c2ncc(F)cc12` [Compound 337]: 4.00 to 5.30.

For orientation: pEC50 means the negative decadic logarithm of the EC50, by convention in mol/L. A lower pEC50 goes with a large EC50.
